Columns and labels:
ALOMY [1] = assay: Pre-emergence action against ALOMY; type: in vivo, Alopecurus myosuroides; settings: dosage 320 g/ha; pre-emergence; scored visually after 3 weeks vs untreated controls; 100% = plants have died, 0% = like control plants
In short: (§1)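 Seeds sown in sandy loam in wood-fiber pots and covered with soil. Greenhouse growth; visual damage scored after 3 weeks versus untreated controls (100% = dead, 0% = like control).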

AVEFA [2] = assay: Pre-emergence action against AVEFA; type: in vivo, Avena fatua; settings: dosage 320 g/ha, scored visually after 3 weeks vs untreated controls
In short: as §1

DIGSA [3] = assay: Pre-emergence action against DIGSA; type: in vivo, Digitaria sanguinalis; settings: dosage 320 g/ha, scored visually after 3 weeks vs untreated controls
In short: as §1

ECHCG [4] = assay: Pre-emergence action against ECHCG; type: in vivo, Echinochloa crus-galli; settings: pre-emergence, dosage 320 g/ha, scored visually after 3 weeks vs untreated controls
In short: as §1

LOLRI = assay: Pre-emergence action against LOLRI; type: in vivo, Lolium rigidum; settings: dosage 320 g/ha, scored visually after 3 weeks vs untreated controls
In short: as §1

SETVI [5] = assay: Pre-emergence action against SETVI; type: in vivo, Setaria viridis; settings: pre-emergence, dosage 320 g/ha, scored visually after 3 weeks vs untreated controls
In short: as §1

ABUTH [6] = assay: Pre-emergence action against ABUTH; type: in vivo, Abutilon theophrasti; settings: pre-emergence, dosage 320 g/ha, scored visually after 3 weeks vs untreated controls
In short: as §1

AMARE [7] = assay: Pre-emergence action against AMARE; type: in vivo, Amaranthus retroflexus; settings: pre-emergence, dosage 320 g/ha, scored visually after 3 weeks vs untreated controls
In short: as §1

MATIN [8] = assay: Pre-emergence action against MATIN; type: in vivo, Matricaria inodora; settings: Dosage 320 g/ha, pre-emergence
In short: as §1

PHBPU [9] = assay: Pre-emergence action against PHBPU; type: in vivo, Pharbitis purpurea; settings: Dosage 320 g/ha, pre-emergence
In short: as §1

STEME [10] = assay: Pre-emergence action against STEME; type: in vivo, Stellaria media; settings: Dosage 320 g/ha, pre-emergence
In short: as §1

VIOTR [11] = assay: Pre-emergence action against VIOTR; type: in vivo, Viola tricolor; settings: Dosage 320 g/ha, pre-emergence
In short: as §1

VERPE [12] = assay: Pre-emergence action against VERPE; type: in vivo, Veronica persica; settings: Dosage 320 g/ha, pre-emergence
In short: as §1

ALOMY [13] = assay: Post-emergence action against ALOMY; type: in vivo, Alopecurus myosuroides; settings: Dosage 80 g/ha, post-emergence
In short: (§2)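 Post-emergence foliar spray on greenhouse plants at the one-leaf stage, using wettable-powder or emulsion-concentrate formulations in water (600 to […], plus 0.2% wetting agent). Damage scored by eye roughly 3 weeks later against untreated plants: 0% = like control, 100% = dead.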

DIGSA [14] = assay: Post-emergence action against DIGSA; type: in vivo, Digitaria sanguinalis; settings: dosage 80 g/ha, visual assessment about 3 weeks after treatment vs untreated controls
Experimental: Seeds of monocotyledonous and dicotyledonous weed and crop plants are laid out in sandy loam soil in wood-fiber pots, covered with soil and cultivated in a greenhouse under good growth conditions. 2 to 3 weeks after sowing, the test plants are treated at the one-leaf stage. The compounds of the invention, formulated in the form of wettable powders (WP) or as emulsion concentrates (EC), are then sprayed onto the green parts of the plants in the form of an aqueous suspension or emulsion at a water application rate equating to […], with addition of 0.2% wetting agent. After the test plants have been left to stand in the greenhouse under optimal growth conditions for about 3 weeks, the action of the preparations is assessed visually in comparison to untreated controls (herbicidal action in percent (%): 100% activity=the plants have died, 0% activity=like control plants). […] At the same time, inventive compounds leave Gramineae crops such as barley, wheat, rye, millet/Sorghum, corn or rice virtually undamaged when applied post-emergence, even at high active ingredient dosages. In addition, some substances are also harmless to dicotyledonous crops such as soya, cotton, oilseed rape, sugar beet or potatoes. Some of the compounds according to the invention have high selectivity and are therefore suitable for controlling unwanted vegetation in agricultural crops by the post-emergence method. The data of Tables B18 to B34 below illustrate, in an exemplary manner, the […] herbicidal action of the compounds according to the invention, the herbicidal activity being stated in percent.

ECHCG [15] = assay: Post-emergence action against ECHCG; type: in vivo, Echinochloa crus-galli; settings: post-emergence, dosage 80 g/ha, visual assessment about 3 weeks after treatment vs untreated controls
In short: as §2

SETVI [16] = assay: Post-emergence action against SETVI; type: in vivo, Setaria viridis; settings: post-emergence, dosage 80 g/ha, visual assessment about 3 weeks after treatment vs untreated controls
In short: as §2

ABUTH [17] = assay: Post-emergence action against ABUTH; type: in vivo, Abutilon theophrasti; settings: post-emergence, dosage 80 g/ha, visual assessment about 3 weeks after treatment vs untreated controls
In short: as §2

AMARE [18] = assay: Post-emergence action against AMARE; type: in vivo, Amaranthus retroflexus; settings: post-emergence, dosage 80 g/ha, visual assessment about 3 weeks after treatment vs untreated controls
In short: as §2

MATIN [19] = assay: Post-emergence action against MATIN; type: in vivo, Matricaria inodora; settings: post-emergence, dosage 80 g/ha, visual assessment about 3 weeks after treatment vs untreated controls
In short: as §2

PHBPU [20] = assay: Post-emergence action against PHBPU; type: in vivo, Pharbitis purpurea; settings: post-emergence, dosage 80 g/ha
In short: as §2

POLCO [21] = assay: Post-emergence action against POLCO; type: in vivo, Polygonum convolvulus; settings: post-emergence, dosage 80 g/ha
In short: as §2

STEME [22] = assay: Post-emergence action against STEME; type: in vivo, Stellaria media; settings: post-emergence, dosage 80 g/ha
In short: as §2

VIOTR [23] = assay: Post-emergence action against VIOTR; type: in vivo, Viola tricolor; settings: post-emergence, dosage 80 g/ha
In short: as §2

VERPE [24] = assay: Post-emergence action against VERPE; type: in vivo, Veronica persica; settings: dosage 80 g/ha
In short: as §2

POLCO [25] = assay: Pre-emergence action against POLCO; type: in vivo, Polygonum convolvulus; settings: Dosage 320 g/ha, pre-emergence
In short: as §1

AVEFA [26] = assay: Post-emergence action against AVEFA; type: in vivo, Avena fatua; settings: post-emergence, dosage 80 g/ha, visual assessment about 3 weeks after treatment vs untreated controls
In short: as §2

Cn1nnnc1NC(=O)c1ccc(C(F)(F)F)c(C(=O)C2CCC2)c1Cl [1-153]
80%: Pre-emergence action against AVEFA (herbicidal activity) (AVEFA [2]) | Pre-emergence action against PHBPU (PHBPU [9]) | Post-emergence action against ALOMY (ALOMY [13])
90%: Pre-emergence action against ALOMY (herbicidal activity in percent) (ALOMY [1]) | Pre-emergence action against ECHCG (herbicidal activity) (ECHCG [4]) | Pre-emergence action against LOLRI (herbicidal activity) (LOLRI) | Post-emergence action against DIGSA (herbicidal action in percent) (DIGSA [14]) | Post-emergence action against ECHCG (herbicidal action in percent) (ECHCG [15])
80: Post-emergence action against POLCO (POLCO [21]) | Post-emergence action against VIOTR (VIOTR [23]) | Post-emergence action against VERPE (VERPE [24])
90: Post-emergence action against PHBPU (PHBPU [20])
100%: Pre-emergence action against DIGSA (herbicidal activity) (DIGSA [3]) | SETVI (Table B8, pre-emergence herbicidal activity) (SETVI [5]) | Pre-emergence action against ABUTH (herbicidal activity) (ABUTH [6]) | Pre-emergence action against AMARE (herbicidal activity) (AMARE [7]) | Pre-emergence action against MATIN (MATIN [8]) | Pre-emergence action against STEME (STEME [10]) | Pre-emergence action against VIOTR (VIOTR [11]) | Pre-emergence action against VERPE (VERPE [12]) | Post-emergence action against SETVI (herbicidal action in percent) (SETVI [16]) | Post-emergence action against ABUTH (herbicidal action in percent) (ABUTH [17]) | Post-emergence action against AMARE (herbicidal action in percent) (AMARE [18]) | Post-emergence action against MATIN (herbicidal action in percent) (MATIN [19])
100: Post-emergence action against STEME (STEME [22])

CCn1nnnc1NC(=O)c1ccc(C(F)(F)F)c(C(=O)CCl)c1C [2-22]
80%: Pre-emergence action against PHBPU (PHBPU [9]) | Pre-emergence action against POLCO (POLCO [25]) | Post-emergence action against ALOMY (ALOMY [13]) | Post-emergence action against SETVI (herbicidal action in percent) (SETVI [16]) | Post-emergence action against AMARE (herbicidal action in percent) (AMARE [18])
90%: Pre-emergence action against ALOMY (herbicidal activity in percent) (ALOMY [1]) | Pre-emergence action against ECHCG (herbicidal activity) (ECHCG [4]) | Pre-emergence action against LOLRI (herbicidal activity) (LOLRI) | Post-emergence action against DIGSA (herbicidal action in percent) (DIGSA [14]) | Post-emergence action against ECHCG (herbicidal action in percent) (ECHCG [15]) | Post-emergence action against ABUTH (herbicidal action in percent) (ABUTH [17]) | Post-emergence action against MATIN (herbicidal action in percent) (MATIN [19])
90: Post-emergence action against STEME (STEME [22])
80: Post-emergence action against VERPE (VERPE [24])
100: Post-emergence action against PHBPU (PHBPU [20]) | Post-emergence action against VIOTR (VIOTR [23])
100%: Pre-emergence action against AVEFA (herbicidal activity) (AVEFA [2]) | Pre-emergence action against DIGSA (herbicidal activity) (DIGSA [3]) | SETVI (Table B8, pre-emergence herbicidal activity) (SETVI [5]) | Pre-emergence action against ABUTH (herbicidal activity) (ABUTH [6]) | Pre-emergence action against AMARE (herbicidal activity) (AMARE [7]) | Pre-emergence action against MATIN (MATIN [8]) | Pre-emergence action against STEME (STEME [10]) | Pre-emergence action against VIOTR (VIOTR [11]) | Pre-emergence action against VERPE (VERPE [12])

Cc1c(C(=O)Nc2nnnn2C)ccc(C(F)(F)F)c1C(=O)CCl [1-22]
90: Post-emergence action against PHBPU (PHBPU [20]) | Post-emergence action against STEME (STEME [22]) | Post-emergence action against VIOTR (VIOTR [23])
90%: Pre-emergence action against ALOMY (herbicidal activity in percent) (ALOMY [1]) | Pre-emergence action against PHBPU (PHBPU [9]) | Post-emergence action against ALOMY (ALOMY [13]) | Post-emergence action against AVEFA (herbicidal action in percent) (AVEFA [26]) | Post-emergence action against ECHCG (herbicidal action in percent) (ECHCG [15]) | Post-emergence action against SETVI (herbicidal action in percent) (SETVI [16]) | Post-emergence action against ABUTH (herbicidal action in percent) (ABUTH [17]) | Post-emergence action against AMARE (herbicidal action in percent) (AMARE [18]) | Post-emergence action against MATIN (herbicidal action in percent) (MATIN [19])
80: Post-emergence action against VERPE (VERPE [24])
100%: Pre-emergence action against AVEFA (herbicidal activity) (AVEFA [2]) | Pre-emergence action against DIGSA (herbicidal activity) (DIGSA [3]) | Pre-emergence action against ECHCG (herbicidal activity) (ECHCG [4]) | Pre-emergence action against LOLRI (herbicidal activity) (LOLRI) | SETVI (Table B8, pre-emergence herbicidal activity) (SETVI [5]) | Pre-emergence action against ABUTH (herbicidal activity) (ABUTH [6]) | Pre-emergence action against AMARE (herbicidal activity) (AMARE [7]) | Pre-emergence action against MATIN (MATIN [8]) | Pre-emergence action against STEME (STEME [10]) | Pre-emergence action against VIOTR (VIOTR [11]) | Pre-emergence action against VERPE (VERPE [12]) | Post-emergence action against DIGSA (herbicidal action in percent) (DIGSA [14])

— US11051515B2, “3-acyl-benzamides and their use as herbicides” (Bayer Aktiengesellschaft, priority 2017, dated 2021)
